The source of these data is US10500207B2, “Compounds for the treatment of diseases associated with amyloid or amyloid-like proteins” (AC Immune SA, priority 2010, dated 2019).

The structures appear in SMILES notation.

The term inhibition denotes the change of the read-out against control, counted positive when it falls. A word on the IC50: it is the concentration needed to halve the response being measured.

For the test, the target named is Aβ1-42 peptide (Homo sapiens, UniProt P05067). As to the kind of experiment: Thioflavin T spectrofluorescence assay (ThT-assay): inhibition of Aβ1-42 aggregation (% inhibition at 330 μM; IC50 from dilution series). Particulars: for inhibition at 330 µM: 24 h, read-out: Inhibition at 330 μM [%], ThT assay, 330 μM small molecule, 33 μM Aβ1-42 (10:1), 24 hrs at 37° C., mean ± standard deviation of two independent experiments; for IC50: ThT assay, dilution series 330 μM to 0.08 μM.
Sequence of Aβ1-42 peptide (P05067 672-713 limits assumed): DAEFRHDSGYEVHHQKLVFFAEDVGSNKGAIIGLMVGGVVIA

Method: Aβ1-42 lyophilized powder (Bachem) was reconstituted in hexafluoroisopropanol (HFIP) to 1 mM. The peptide solution was sonicated for 15 min at room temperature, agitated overnight, and aliquots were made into non-siliconized microcentrifuge tubes. The HFIP was then evaporated under a stream of argon. The resulting peptide film was dried under vacuum for 10 min, tightly sealed and stored at −80° C. until used.
A positive control without a small molecule was prepared to measure maximum RFU. A negative control without Aβ1-42 was prepared for each small molecule. […] The solutions were then incubated for 24 hrs at 37° C., and the spectrofluorescence (relative fluorescence units; RFU) were read in six replicates in black 384-well assay plates (Perkin-Elmer) on a Perkin-Elmer FluoroCount spectrofluorometer. The inhibition of aggregation is expressed as mean % inhibition±1 standard deviation (SD) according to the following equation:
Racemic compounds and their enantiomers were tested for their ability to inhibit amyloid peptide aggregation using the ThT assay. To determine the IC50, the following dilutions of the compounds were used in the ThT assay described above:

`COc1ccc(Nc2ccc3c4c(n(C)c3n2)CCC(OC(C)C)C4)cc1OC` (stereo not shown) [Example 131]: the inhibition at 330 µM is 91.4 ± 0.2%.

Take `c1cc2ncc(Nc3ccc4cc[nH]c4n3)cc2[nH]1` [Example 13]: the inhibition at 330 µM worked out at 97.8 ± 1.8%.

Turning to `CNC1CCc2[nH]c3ccc(NC4CCN(C)CC4)cc3c2C1` (stereo not shown) [Example 109], the inhibition at 330 µM amounted to 63.6 ± 2%.

With `Fc1ccc(Nc2ccc3c(C4CCNCC4)c[nH]c3n2)cc1F` [Example 60], the inhibition at 330 µM worked out at 83.1 ± 3.4%.

`CN1CCc2ccc(Nc3ccc4c5c(n(C)c4n3)CCCC5)cc2C1` [Example 201]: the inhibition at 330 µM was 93.3 ± 0.1%.

For the compound `CN1CCC(c2c[nH]c3ccc(Nc4ccc5c(C6CCNCC6)c[nH]c5c4)cc23)CC1` [Example 64], the inhibition at 330 µM turned out to be 95.4 ± 0.3%.

As to `COc1cc(Nc2ccc3c(C4CCN(C)CC4)c[nH]c3c2)ccc1F` [Example 114], the inhibition at 330 µM was found to be 82.2 ± 1.6%.

For the compound `c1cc2c(C3CCNCC3)c[nH]c2nc1NCC1CCNCC1` [Example 50], the inhibition at 330 µM is 67.5 ± 0.1%.

Regarding `CN1CCN(C(=O)c2ccc(Nc3ccc4c(c3)OCO4)cc2)CC1` [Example 190], the inhibition at 330 µM was found to be 20.1 ± 4.6%.

For the compound `FC(F)(F)c1ccc(Nc2ccc3cc[nH]c3n2)cn1` [Example 4], the inhibition at 330 µM is 53.5 ± 0.4%.

With `CN(c1ccc2c(c1)c(C1CCNCC1)cn2C)c1ccc2c(C3CCNCC3)cn(C)c2c1` [Example 54], the inhibition at 330 µM is 96 ± 2.7%.

Take `COc1ccc(Nc2ccc3c(C4CCN(C)CC4)c[nH]c3c2)cc1OC` [Example 91]: the inhibition at 330 µM came to 92.5 ± 1.3%.

In the case of `CNC1CCc2[nH]c3nc(Nc4ccc(F)c(F)c4)ccc3c2C1` (stereo not shown) [Example 24], the inhibition at 330 µM stood at 77.4 ± 15.6%.

In the case of `Cn1c2c(c3cc(Nc4ccc(C(F)(F)F)nc4)ccc31)CS(=O)(=O)CC2` [Example 179], the inhibition at 330 µM turned out to be 30.2 ± 0.9%.

As to `Cn1c2c(c3cc(Nc4ccc(F)c(F)c4)ccc31)CS(=O)(=O)CC2` [Example 176], the inhibition at 330 µM amounted to 41.5 ± 3.6%.

On to `CNC1CCc2[nH]c3nc(Nc4ccc5c(C6CCNCC6)c[nH]c5c4)ccc3c2C1` (stereo not shown) [Example 31], for which the inhibition at 330 µM is 96.5 ± 0.6%.

On to `Fc1ccc(Nc2ccc3cc[nH]c3n2)cc1` [Example 10], for which the inhibition at 330 µM came to 62.7 ± 4%.

On to `Cn1c2c(c3ccc(Nc4ccc5c(c4)NC(=O)CO5)nc31)CCCC2` [Example 168], for which the inhibition at 330 µM was 82.1 ± 7%.

As for `c1nc2[nH]cc(C3CCNCC3)c2cc1Nc1ccc2c3c([nH]c2n1)CCC3` [Example 51], the inhibition at 330 µM turned out to be 95.5 ± 1%.

`Cn1c2c(c3cc(Nc4ccc5c(c4)OCCO5)ccc31)CS(=O)(=O)CC2` [Example 177]: the inhibition at 330 µM is 29.6 ± 6.2%.

For `CN1CCC(c2c[nH]c3cc(Nc4cc(F)c(F)c(F)c4)ccc23)CC1` [Example 113], the inhibition at 330 µM worked out at 90.5 ± 0.5%.

`CN1CCN(c2ccc(Nc3ccc4c5c(n(C)c4n3)CCCC5)cc2)CC1` [Example 166]: the inhibition at 330 µM was 93.6 ± 2.2%.

Consider `Cn1c2c(c3ccc(Nc4ccc(F)c(F)c4)nc31)CC(OCCF)CC2` (stereo not shown) [Example 128], for which the inhibition at 330 µM stood at 88.6 ± 1.2%.

As for `COc1ccc(Nc2ccc3c4c(n(C)c3n2)CCCC4)cc1OC` [Example 81], the inhibition at 330 µM was determined as 90.5 ± 0.5%.

As for `CN1CCc2ccc(Nc3ccc4c5c(n(C)c4n3)CCC5)cc2C1` [Example 174], the inhibition at 330 µM was 87.2 ± 1.3%.

For the compound `CN1CCc2c(c3cc(Nc4ccc(F)c(F)c4)ccc3n2C)C1` [Example 206], the inhibition at 330 µM was 94.5 ± 0.7%.

As to `COCCOC1CCc2c(c3ccc(Nc4ccc(F)c(F)c4)nc3n2C)C1` (stereo not shown) [Example 136], the inhibition at 330 µM was 88 ± 1.4%.

Turning to `CNC1CCc2c(c3ccc(Nc4ccc5[nH]cc(C6CCNCC6)c5c4)nc3n2C)C1` (stereo not shown) [Example 92], the inhibition at 330 µM was found to be 99.6 ± 0.6%.

Take `CNC1CCc2c(c3ccc(Nc4ccc5c(C6CCN(C)CC6)c[nH]c5c4)nc3n2C)C1` (stereo not shown) [Example 117]: the inhibition at 330 µM worked out at 90.7 ± 7.9%.

Take `CNC1CCc2c(c3ccc(Nc4ccc(C)c(OC)c4)nc3n2C)C1` (stereo not shown) [Example 160]: the inhibition at 330 µM was 96.3 ± 0.3%.

Regarding `Cn1c2c(c3ccc(Nc4ccc5c(c4)OCCO5)cc31)CN(CCCCS(C)(=O)=O)CC2` [Example 207], the inhibition at 330 µM was 75.6 ± 13.4%.

Take `COCCNC1CCc2c(c3ccc(Nc4ccc(F)c(F)c4)nc3n2C)C1` (stereo not shown) [Example 141]: the inhibition at 330 µM worked out at 87.5 ± 1.4%.

For the compound `c1cc2c(cc1Nc1ccc3c(C4CCNCC4)c[nH]c3c1)OCO2` [Example 41], the inhibition at 330 µM turned out to be 98 ± 0.5%.

With `Cn1cnc2ccc(Nc3ccc4c5c(n(C)c4n3)CCCC5)cc21` [Example 172], the inhibition at 330 µM was found to be 68.3 ± 0.8%.

For `Cn1c2c(c3ccc(N4CCOCC4)nc31)CCCC2` [Example 163], the inhibition at 330 µM worked out at 32.7 ± 0.9%.

Turning to `COc1cc(Nc2ccc3c(c2)c2c(n3C)CCS(=O)(=O)C2)ccc1C` [Example 178], the inhibition at 330 µM came to 35.4 ± 5.9%.

Regarding `COc1ccc(Nc2ccc3[nH]cc(C4CCN(C)CC4)c3c2)cc1F` [Example 101], the inhibition at 330 µM worked out at 70.2 ± 9.8%.

For `Cn1c2c(c3ccc(Nc4ccc5c(c4)OCCO5)nc31)CC(OCCF)CC2` (stereo not shown) [Example 130], the inhibition at 330 µM worked out at 91.6 ± 0.2%.

In the case of `CNC1CCc2c(c3ccc(Nc4ccc5c(c4)OCCO5)nc3n2C)C1` (single isomer, unassigned) [Example 217b], the IC50 by setting is: (IC50 μM 1st assay, 1st assay) 6.6 µM; (IC50 μM 2nd assay, 2nd assay) 5.9 µM.

For `CNC1CCc2c(c3ccc(Nc4ccc5c(c4)NC(=O)CO5)nc3n2C)C1` (stereo not shown) [Example 86], the inhibition at 330 µM is 96.6 ± 0.7%.

In the case of `Fc1ccc(Nc2ccc3c(C4CCNCC4)c[nH]c3c2)cc1F` [Example 52], the inhibition at 330 µM stood at 83.6 ± 2.8%.

As to `CNC1CCc2c(c3ccc(Nc4ccc(F)c(F)c4)nc3n2C)C1` (single isomer, unassigned) [Example 214b], the IC50 came to 13.4 µM (IC50 μM 1st assay, 1st assay) and 7.7 µM (IC50 μM 2nd assay, 2nd assay).

Take `CNC1CCc2[nH]c3ccc(Nc4ccc(OC)c(F)c4)cc3c2C1` (stereo not shown) [Example 107]: the inhibition at 330 µM turned out to be 86.8 ± 1.9%.

For `COC1CCc2c(c3ccc(Nc4ccc5c(c4)OCCO5)nc3n2C)C1` (stereo not shown) [Example 198], the inhibition at 330 µM was determined as 92.1 ± 0.3%.

As to `CNC1CCc2c(c3cc(Nc4ccc(F)c(F)c4)cnc3n2C)C1` (stereo not shown) [Example 134], the inhibition at 330 µM amounted to 67.3 ± 10.4%.

For `CNC1CCc2c(c3ccc(Nc4ccc(F)c(F)c4)cc3n2C)C1` (stereo not shown) [Example 140], the inhibition at 330 µM amounted to 93.8 ± 0.6%.

For the compound `c1cc2c(C3CCNCC3)c[nH]c2cc1Nc1ccc2c(C3CCNCC3)c[nH]c2c1` [Example 63], the inhibition at 330 µM was 91.5 ± 2.5%.

Consider `CNC1CCc2[nH]c3cc(Nc4ccc5c(c4)OCCO5)ccc3c2C1` (stereo not shown) [Example 132], for which the inhibition at 330 µM amounted to 99.4 ± 0.8%.

For `CC(=O)Nc1cccc(Nc2ccc3c(C4CCNCC4)c[nH]c3n2)c1` [Example 143], the inhibition at 330 µM worked out at 64.8 ± 3.7%.

As to `c1cc2c(C3CCNCC3)c[nH]c2cc1Nc1ccc2c(C3CCNCC3)c[nH]c2n1` [Example 48], the inhibition at 330 µM is 92 ± 0.8%.

On to `Cn1cnc2ccc(Nc3ccc4c(c3)c3c(n4C)CCS(=O)(=O)C3)cc21` [Example 181], for which the inhibition at 330 µM stood at 6.6 ± 4.3%.

Consider `Cn1cc(C2CCNCC2)c2cc(Nc3ccc(F)c(F)c3)ccc21` [Example 57], for which the inhibition at 330 µM was determined as 85.1 ± 3.2%.

Take `COc1ccc(Nc2ccc3c(C4CCN(C)CC4)cn(C)c3n2)cc1F` [Example 105]: the inhibition at 330 µM was 96.7 ± 0.7%.

With `COc1ccc(Nc2ccc3c(C4CCNCC4)cn(C)c3n2)cc1F` [Example 103], the inhibition at 330 µM is 93.2 ± 3.7%.

With `CN1CCN(C(=O)c2ccc(Nc3ccc(F)cc3)cc2)CC1` [Example 189], the inhibition at 330 µM worked out at 12.6 ± 5.5%.

With `c1ccc(CCNc2ccc3cc[nH]c3n2)nc1` [Example 1], the inhibition at 330 µM was determined as 69.5 ± 4.5%.

Consider `CN1CCC(c2c[nH]c3cc(Nc4ccc5c(C6CCN(C)CC6)c[nH]c5c4)ccc23)CC1` [Example 119], for which the inhibition at 330 µM was determined as 99.2 ± 0.3%.

In the case of `COc1cc(Nc2ccc3c(C4CCNCC4)cn(C)c3c2)ccc1F` [Example 112], the inhibition at 330 µM was 91.3 ± 1.3%.

`CNC1CCc2c(c3ccc(Nc4cccc(N5CCOCC5)c4)nc3n2C)C1` (stereo not shown) [Example 82]: the inhibition at 330 µM worked out at 96.6 ± 2%.

Regarding `COc1ccc(Nc2ccc3c(C4CCNCC4)cn(C)c3c2)cc1F` [Example 98], the inhibition at 330 µM is 95.3 ± 0.1%.

Consider `CN1CCC(c2c[nH]c3cc(Nc4cc(F)c(F)cc4F)ccc23)CC1` [Example 79], for which the inhibition at 330 µM was 91 ± 4.2%.

Take `COc1ccc(Nc2ccc3c4c(n(C)c3n2)CCC(OCCF)C4)cc1OC` (stereo not shown) [Example 129]: the inhibition at 330 µM worked out at 79.9 ± 0.6%.

For `COC1CCc2c(c3ccc(Nc4ccc(F)cc4)cc3n2C)C1` (stereo not shown) [Example 191], the inhibition at 330 µM came to 89.7 ± 1.4%.

Regarding `Cn1c2c(c3cc(Nc4ccc(N5CCOCC5)cc4)ccc31)CS(=O)(=O)CC2` [Example 184], the inhibition at 330 µM was 41.3 ± 1.1%.

On to `c1cc(N2CCOCC2)ccc1Nc1ccc2c(C3CCNCC3)c[nH]c2c1` [Example 73], for which the inhibition at 330 µM came out at 99.2 ± 0.3%.

Turning to `c1cc2cc(Nc3ccc4cc[nH]c4c3)ccc2[nH]1` [Example 16], the inhibition at 330 µM came out at 93.7 ± 2.1%.

For `CNC1CCc2c(c3ccc(Nc4ccc5c(c4)OCCCO5)nc3n2C)C1` (stereo not shown) [Example 84], the inhibition at 330 µM came to 91.7 ± 0.2%.

Consider `Cn1cc(C2CCNCC2)c2ccc(Nc3ccc4ocnc4c3)cc21` [Example 111], for which the inhibition at 330 µM was 99.5 ± 0.1%.

Turning to `Cn1cc(C2CCNCC2)c2ccc(Nc3ccc(F)c(F)c3)nc21` [Example 67], the inhibition at 330 µM stood at 87.8 ± 4.2%.

On to `c1cc2[nH]cc(C3CCNCC3)c2cc1Nc1ccc2c3c([nH]c2n1)CCC3` [Example 47], for which the inhibition at 330 µM stood at 99.1 ± 0.5%.

As to `CNC1CCc2c(c3ccc(Nc4ccc(OC)c(OC)c4)nc3n2C)C1` (stereo not shown) [Example 95], the inhibition at 330 µM was 89.9 ± 6.1%.

As for `Cn1cc(C2CCNCC2)c2cc(Nc3ccc4c5c([nH]c4n3)CCC5)ccc21` [Example 59], the inhibition at 330 µM worked out at 99 ± 0.3%.

In the case of `CN1CCC(c2c[nH]c3cc(Nc4ccc(N5CCOCC5)cc4)ccc23)CC1` [Example 162], the inhibition at 330 µM was 94.5 ± 3.1%.

As to `Cn1c2c(c3cc(Nc4ccc5c(c4)OCCO5)ccc31)CN(CCCCS(C)(=O)=O)CC2` [Example 209], the inhibition at 330 µM turned out to be 66.2 ± 6.5%.
